Data on 14 compounds can be found in patent publication US20160122342A1, “ENHANCER OF ZESTE HOMOLOG 2 INHIBITORS” (GLAXOSMITHKLINE INTELLECTUAL PROPERTY (NO.2) LIMITED, priority 2013, published 2016).

Read-outs that look alike come from different tables or passages of the source.

For data set [1] the following is noted: rcm bond.
The conditions of data set [2]: rcm bond, DCM.
Data set [3] addresses T1, EZH2 within the PRC2 complex (Homo sapiens, UniProt Q15910).
T1 construct: FLAG; made in house; host or cells: Sf9 cells
The experiment in a line: Assay Protocol 1: EZH2 methyltransferase scintillation proximity assay, mononucleosome substrate. It counts as biochemical. The conditions noted are these: Assay Protocol 1; SPA, 3H-SAM, Histone H3 of mononucleosome purified from HeLa cells; 5-member PRC2 complex; read-out: EZH2 IC50.

Data set [4] concerns the target T1, EZH2 within the PRC2 complex. The data set is described as follows: Assay Protocol 2: EZH2 methyltransferase scintillation proximity assay, biotinylated histone H3 peptide substrate. Conditions: SPA, 3H-SAM, biotinylated unmethylated histone H3K27 peptide substrate, 5-member PRC2 complex. The data set is classed as biochemical. The method, boiled down:
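PRC2-complexed EZH2 was run in 50 mM Tris-HCl pH 8, 2 mM MgCl2, 4 mM DTT and 0.001% Tween-20. It was added to a 2× mix of 10 uM biotinylated H3K27 peptide, 0.15 uM 3H-SAM and 2.85 uM cold SAM with streptavidin SPA beads. After 60 min at room temperature and a cold-SAM quench, IC50 was fitted from percent inhibition versus DMSO.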

[5] abbreviates: from C=CCCc1cc(C)nc(OC)c1CNC(=O)c1cccc(N(CC)C2CCOCC2)c1CC=C, 12-membered ring, Grubbs II (2 x 20 mol%), DCM, 25.3 mM, 25.0 °C, 36.0 h.
Where [6] appears, read: from C=CCCc1cc(C)nc(OC)c1CNC(=O)c1ccnc(Cl)c1CC=C, 12-membered ring, Grubbs II (10 mol%), DCM, 10.6 mM, 16.0 h.

T1 sequence (Q15910 whole entry): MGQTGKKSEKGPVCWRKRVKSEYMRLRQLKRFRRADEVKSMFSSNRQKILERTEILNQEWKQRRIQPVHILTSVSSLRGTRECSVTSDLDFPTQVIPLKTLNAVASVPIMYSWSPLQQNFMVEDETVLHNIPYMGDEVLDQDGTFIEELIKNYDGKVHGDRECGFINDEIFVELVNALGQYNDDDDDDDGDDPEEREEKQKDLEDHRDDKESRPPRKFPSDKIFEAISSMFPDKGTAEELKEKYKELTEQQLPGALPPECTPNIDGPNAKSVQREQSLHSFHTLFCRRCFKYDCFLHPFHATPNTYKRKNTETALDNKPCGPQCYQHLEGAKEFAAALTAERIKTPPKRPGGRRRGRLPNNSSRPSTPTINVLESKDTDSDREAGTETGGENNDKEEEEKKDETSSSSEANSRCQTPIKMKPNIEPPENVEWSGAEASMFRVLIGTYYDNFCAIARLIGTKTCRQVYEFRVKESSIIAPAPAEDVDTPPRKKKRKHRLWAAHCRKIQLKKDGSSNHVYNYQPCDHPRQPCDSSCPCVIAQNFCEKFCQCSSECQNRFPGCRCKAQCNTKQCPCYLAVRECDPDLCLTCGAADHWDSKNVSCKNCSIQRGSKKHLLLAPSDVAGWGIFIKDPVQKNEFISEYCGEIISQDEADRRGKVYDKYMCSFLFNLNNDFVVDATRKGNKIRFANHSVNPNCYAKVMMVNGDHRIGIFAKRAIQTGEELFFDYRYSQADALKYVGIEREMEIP
T1 sequence (O75530 whole entry partner): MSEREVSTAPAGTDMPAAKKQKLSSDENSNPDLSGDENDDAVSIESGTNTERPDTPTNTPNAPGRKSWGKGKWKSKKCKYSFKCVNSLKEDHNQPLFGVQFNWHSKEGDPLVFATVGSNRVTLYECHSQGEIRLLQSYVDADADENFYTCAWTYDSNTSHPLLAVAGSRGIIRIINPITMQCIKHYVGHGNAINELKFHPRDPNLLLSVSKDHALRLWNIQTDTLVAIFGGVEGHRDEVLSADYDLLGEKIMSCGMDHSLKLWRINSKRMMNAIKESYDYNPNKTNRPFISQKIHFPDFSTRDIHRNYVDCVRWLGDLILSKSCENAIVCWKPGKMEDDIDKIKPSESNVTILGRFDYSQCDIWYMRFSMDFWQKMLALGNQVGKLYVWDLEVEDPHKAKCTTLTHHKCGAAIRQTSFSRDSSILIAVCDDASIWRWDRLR
T1 sequence (Q15022 whole entry partner): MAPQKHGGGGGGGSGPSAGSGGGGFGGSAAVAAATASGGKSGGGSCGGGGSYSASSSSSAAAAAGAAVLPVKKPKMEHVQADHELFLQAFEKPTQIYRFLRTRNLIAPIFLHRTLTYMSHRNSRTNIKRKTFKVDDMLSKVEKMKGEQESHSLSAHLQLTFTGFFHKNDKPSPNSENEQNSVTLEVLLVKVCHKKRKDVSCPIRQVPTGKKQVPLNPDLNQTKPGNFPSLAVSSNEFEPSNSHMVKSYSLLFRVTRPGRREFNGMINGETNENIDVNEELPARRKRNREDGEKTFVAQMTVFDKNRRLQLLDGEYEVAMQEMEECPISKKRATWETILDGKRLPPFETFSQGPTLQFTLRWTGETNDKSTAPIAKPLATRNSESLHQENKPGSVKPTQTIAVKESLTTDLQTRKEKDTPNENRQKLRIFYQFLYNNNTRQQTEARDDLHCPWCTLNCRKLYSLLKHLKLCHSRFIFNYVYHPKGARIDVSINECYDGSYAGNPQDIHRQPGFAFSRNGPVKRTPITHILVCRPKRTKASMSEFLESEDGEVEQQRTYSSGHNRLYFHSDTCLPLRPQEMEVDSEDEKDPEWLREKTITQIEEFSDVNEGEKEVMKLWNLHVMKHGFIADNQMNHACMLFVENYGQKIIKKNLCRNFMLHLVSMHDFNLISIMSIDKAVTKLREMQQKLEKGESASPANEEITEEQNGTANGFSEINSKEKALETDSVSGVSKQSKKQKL
T1 sequence (Q09028 whole entry partner): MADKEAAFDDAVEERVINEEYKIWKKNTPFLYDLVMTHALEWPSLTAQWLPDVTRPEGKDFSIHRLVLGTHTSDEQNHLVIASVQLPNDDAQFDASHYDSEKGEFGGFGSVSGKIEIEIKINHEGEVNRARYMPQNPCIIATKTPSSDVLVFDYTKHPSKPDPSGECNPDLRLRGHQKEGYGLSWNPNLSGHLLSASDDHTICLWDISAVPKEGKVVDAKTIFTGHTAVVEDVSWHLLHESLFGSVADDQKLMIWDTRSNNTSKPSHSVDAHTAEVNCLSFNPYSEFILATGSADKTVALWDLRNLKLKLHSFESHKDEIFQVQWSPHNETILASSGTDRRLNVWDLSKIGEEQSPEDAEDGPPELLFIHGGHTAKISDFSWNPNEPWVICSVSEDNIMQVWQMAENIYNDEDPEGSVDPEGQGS
T1 sequence (Q6ZN18 whole entry partner): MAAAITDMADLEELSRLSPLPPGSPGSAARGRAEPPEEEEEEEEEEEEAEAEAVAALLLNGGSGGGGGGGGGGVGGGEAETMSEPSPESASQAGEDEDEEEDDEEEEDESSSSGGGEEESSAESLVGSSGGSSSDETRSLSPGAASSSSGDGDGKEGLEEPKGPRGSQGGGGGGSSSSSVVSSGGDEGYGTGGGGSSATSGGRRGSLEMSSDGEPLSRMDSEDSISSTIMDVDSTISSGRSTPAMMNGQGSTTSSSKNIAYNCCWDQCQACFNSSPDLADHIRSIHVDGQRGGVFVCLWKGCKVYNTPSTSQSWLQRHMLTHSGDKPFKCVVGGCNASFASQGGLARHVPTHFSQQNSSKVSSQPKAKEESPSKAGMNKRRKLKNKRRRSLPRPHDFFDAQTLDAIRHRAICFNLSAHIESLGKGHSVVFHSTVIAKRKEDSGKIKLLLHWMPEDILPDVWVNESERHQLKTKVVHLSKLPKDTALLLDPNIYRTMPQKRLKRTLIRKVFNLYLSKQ

Turning to `CCN(c1cccc2c1C/C=C/CCc1cc(C)nc(OC)c1CNC2=O)C1CCC(F)(F)CC1`, the ring closure, yield after HPLC in data set [1] (from C=CCCc1cc(C)nc(OC)c1CNC(=O)c1cccc(N(CC)C2CCC(F)(F)CC2)c1CC=C, 12-membered ring, Grubbs II (15 mol%), DCM, 32.1 mM, 25.0 °C, 16.0 h) was 62%.

`CCN(c1cccc2c1C/C=C/CCc1cc(C)nc(OC)c1CNC2=O)C1CCOCC1` returned a ring closure, yield after HPLC in data set [1] (setting [5]) of 58%.

As for `CCN(c1cccc2c1C/C=C\CCc1cc(C)nc(OC)c1CNC2=O)C1CCOCC1`, the ring closure, yield after HPLC in data set [1] (setting [5]) is 23%.

As for `CCN(c1cccc2c1C/C=C\COc1cc(C)nc(OC)c1CNC2=O)C1CCOCC1`, the ring closure, isolated yield in data set [2] (from C=CCOc1cc(C)nc(OC)c1CNC(=O)c1cccc(N(CC)C2CCOCC2)c1CC=C, 12-membered ring, Grubbs II (10+10 mol%, then 10 mg), 19.5 mM, 25.0 °C, 132.0 h) is 19%.

In turn, `CCN(c1cccc2c1C/C=C\Cc1cc(C)nc(OC)c1CNC2=O)[C@H]1CC[C@H](NC(=O)OC(C)(C)C)CC1` came in with a ring closure, yield after HPLC in data set [1] (from C=CCCc1cc(C)nc(OC)c1CNC(=O)c1cccc(N(CC)[C@H]2CC[C@H](NC(=O)OC(C)(C)C)CC2)c1CC=C, 11-membered ring, Hoveyda-Grubbs (17.5 mol%), DCE, 16.0 mM, 50.0 °C) of 13.7%.

In data set [2] (from C=CCCCCc1cc(C)nc(OC)c1CNC(=O)c1cccc(N(CC)C2CCOCC2)c1CC=C, 14-membered ring, Grubbs II (10 mol%, then ca. 10 mg), 15.8 mM, 25.0 °C, 22.0 h), `CCN(c1cccc2c1CC=CCCCCc1cc(C)nc(OC)c1CNC2=O)C1CCOCC1` gave a ring closure, isolated yield of 73.1%.

Turning to `CCN(c1cccc2c1CC=CCCc1cc(C)nc(OC)c1CNC2=O)[C@H]1CC[C@@H](NC(=O)OC(C)(C)C)CC1`, the ring closure, isolated yield in data set [2] (from C=CCCc1cc(C)nc(OC)c1CNC(=O)c1cccc(N(CC)[C@H]2CC[C@@H](NC(=O)OC(C)(C)C)CC2)c1CC=C, 12-membered ring, Hoveyda-Grubbs II (2 x 20 mol%), 39.8 mM, 55.0 °C, 72.0 h) was determined as 57.8%.

As to `CCN(c1cccc2c1CC=CCOCc1cc(C)nc(OC)c1CNC2=O)C1CCOCC1`, the ring closure, isolated yield in data set [2] (from C=CCOCc1cc(C)nc(OC)c1CNC(=O)c1cccc(N(CC)C2CCOCC2)c1CC=C, 13-membered ring, Grubbs II (10 mol%), 20.0 mM, 25.0 °C, 22.0 h) was determined as 54.7%.

For the compound `COc1cc(Cl)cc2c1CC=CCCCc1cc(C)nc(OC)c1CNC2=O`, the ring closure, isolated yield in data set [2] (from C=CCCCc1cc(C)nc(OC)c1CNC(=O)c1cc(Cl)cc(OC)c1CC=C, 13-membered ring, Grubbs II (10 mol%), 19.6 mM, 25.0 °C, 16.0 h) is 76%.

In the case of `COc1cc(Cl)cc2c1CC=CCCc1cc(C)nc(OC)c1CNC2=O`, the ring closure, isolated yield in data set [2] (from C=CCCc1cc(C)nc(OC)c1CNC(=O)c1cc(Cl)cc(OC)c1CC=C, 12-membered ring, Grubbs II (10 mol%), 19.4 mM, 25.0 °C, 16.0 h) was 69%.

Compound `COc1nc(C)cc2c1CNC(=O)c1ccnc(Cl)c1C/C=C/CC2` gave a ring closure, yield after HPLC in data set [1] (setting [6]) of 37.3%.

With `COc1nc(C)cc2c1CNC(=O)c1ccnc(Cl)c1C/C=C\CC2`, in data set [1] (setting [6]), the ring closure, yield after HPLC is 18.3%.

For the compound `CCN(c1cccc2c1CC=CCc1cc(C)[nH]c(=O)c1CNC2=O)C1CCNCC1` [Example 54, 9-(ethyl(piperidin-4-yl)amino)-3-methyl-5,8,14,15-tetrahydro-1H-benzo[c]pyrido[4,3-i][1]azacycloundecine-1,13(2H)-dione], the IC50 was found to be 3980 nM in data set [3] and 10 µM in data set [4].

As for “(E)-11-(ethyl(1-isopropylpiperidin-4-yl)amino)-3-methyl-5,6,7,10,16,17-hexahydro-1H-benzo[c]pyrido[4,3-k][1]azacyclotridecine-1,15(2H)-dione [Example 42]”, the values for the IC50 in data set [3] and in data set [4] were 20 nM and 0.158 µM, respectively.
